From patent US20050020680A1, “Hydroxyfattysulfonic acid analogs” (priority 2001, published 2005)

Tests used:
Rat neutrophils = test: Elastase production by fMLP stimulation (elastase release inhibition); type: cell-based; conditions: elastase release from cytochalasin B-primed rat neutrophils, fMLP 1 μM, 10 minutes preincubation
Protocol: Test for Elastase Production by fMLP (N-formyl-Met-Leu-Phe)Stimulation
Rat neutrophils preparation was obtained 15-18 hours after intraperitoneal injection of a 1% sterile casein solution in saline (120 mL/kg). Cells were harvested by peritoneal lavage after the decapitation. The lavage fluid was ice-cold PBS (Phosphate-Buffered Saline). Peritoneal exudates were pooled, centrifuged and suspended in HBSS (Hanks' Balanced Salt Solution) at 1×10^7 cells/mL. Cytochalasin B (final concentration: 5 μg/mL) were added to prime the cells. The cells were added into a 96-well culture plate (190 μL/well) and then the compounds of the present invention at various concentrations (10^−7 to 3×10^−5 M) were added and incubated at 37° C. in an atmosphere of 5% CO2 in air. […]
Elastase activity in the incubated supernatant was measured using a specific elastase substrate, N-succinyl-L-alanyl-L-alanyl-L-proline-valine-MCA (Peptide Institue, Inc., Osaka), 0.12 mM in 50 mM Tris-HCl (pH 8.0). […]
Elastase release-inhibiting activity (inhibition ratio) was calculated according to the following equation: Inhibition ratio (%) […]×100 wherein A stands for a fluorescence intensity when fMLP (1 μM) was added; B stands for a fluorescence intensity when fMLP (1 μM) and the present compound were added; and C stands for a fluorescence intensity when fMLP (1 μM) was not added. […]

rat t-MCAo model = test: Infarct volume in rat transient MCA occlusion (t-MCAo) model; type: in vivo, Wistar rats; conditions: 0.1 mg/kg/min, intravenous 1 hour infusion immediately after reperfusion; 71 hrs after reperfusion; vs vehicle-treated group, p<0.05 Dunnett's test
Protocol: FIG. 1 represents an effect of compound 33 on infarct volume in rat t-MCAo model.
The infract volumes of total (open column), cortex (closed column) and subcortex (hatched column) were determined 71 hrs after reperfusion. Data are presented as mean±SEM. *p<0.05 vs vehicle-treated group (Dunnett's test).
Effect on the Infarct Volume in Rat Transient MCA Occlusion (t-MCAo) Model.
Adult male Wistar rats (200-250 g) were anesthetized with 2% halothane in air. The right internal carotid artery (ICA) was carefully dissected. A silicon-coated suture (18 mm-long) was inserted into the ICA. Body temperature was maintained at 37° C. with a heating pad. […] After 1 hour of MCA occlusion, the thread was removed to allow reperfusion of the ischemic area. Rats were received intravenously 1 hour-infusion of vehicle (10% of HP-β-CD) or compound 33 dissolved in vehicle immediately after reperfusion.
To measure infarct volume, rats were killed at 71 hours of reperfusion. Brains were perfused transcardially with physiological saline, and removed from skulls, cut into 2-mm coronal sections. The slices were immersed in 2% triphenyltetrazolium chloride (TTC) solution at 37° C. for 30 minutes. All values were presented as mean±SEM. For statistical analyses, Dunnett's multiple-range test was used.

Structure (SMILES)	IC50 (Rat neutrophils) [µM]	cortex infarct volume (rat t-MCAo model)	total infarct volume (rat t-MCAo model)	IC50 (Rat neutrophils; Neutrophil) [µM]
CCCC[C@@H](O)/C=C\CCCCCCC/C=C\CCCS(=O)(=O)O [Compound 23, Sodium (R)-(4Z, 13Z)-15-hydroxynonadeca-1,13-diene-1-sulfonate]	9.67	–	–	–
CCCC[C@@H](O)/C=C\CCCCCCCCCCCCS(=O)(=O)[O-].[Na+] [Compound 33, Sodium (R)-(Z)-15-hydroxynonadec-13-ene-1-sulfonate]	–	significantly reduced	significantly reduced	15
